# According to patent publication US20240285547A1, “NEPHROTOXICITY REDUCING AGENT” (Nippon Shinyaku Co., Ltd., priority 2021, published 2024):
# What was measured:
# [1] = Evaluation of precipitation suppressing effects with D-mannitol (absorbance at 620 nm in presence of ions assumed to be in urine); format: physicochemical; settings: D-mannitol as medium for PMO Nos. 1, 2, 3, 5, 6, 7, ions assumed to be in urine, 37° C.
# Procedure: The amount of precipitation in the presence of ions assumed to be in urine and precipitation suppressing effects of D-mannitol were evaluated on the antisense oligomers of PMO Nos. 1, 2, 3, 5, 6, and 7 (SEQ ID NO: 1, 2, 3, 5, 6, and 7) among those listed in Table 1 to further verify their utility for pharmaceutical applications.
# C57BL/6J male mice [2] = experiment: Evaluation of nephrotoxicity reducing effects of D-mannitol: serum BUN and Cre after tail vein administration of PMO dosing solutions; settings: D-mannitol in PMO dosing solution vs control dosing solution comprising no D-mannitol
# From the text: The antisense oligomers of PMO Nos. 1, 2, 6, 7, and 10 were each dissolved in water for injection comprising 0.9% sodium chloride (manufactured by Otsuka Pharmaceutical Co., Ltd.) to prepare a control dosing solution comprising each of the antisense oligomers at the concentrations shown in Tables 2, 3, 6, 7, and 8 and comprising no D-mannitol. Also, the antisense oligomers of PMO Nos. 3 and 4 were each dissolved in 5% glucose (manufactured by Otsuka Pharmaceutical Co., Ltd.) to prepare a control dosing solution comprising each of the antisense oligomers at the concentrations shown in Tables 4 and 5 and comprising no D-mannitol. […]
# The obtained dosing solutions were administered into the tail vein of 6-week-old C57BL/6J male mice at 4, 10, and 20 mL/kg. Next day, serum was collected from the mice, and the blood urea nitrogen (BUN) values and blood creatinine (Cre) values were measured with the urease-GIDH method and the enzymatic method, respectively, using automatic biochemical analyzers JCA-BM6050 or JCA-BM8060 (manufactured by JEOL Ltd.).
# C57BL/6J male mice [3] = experiment: Evaluation of nephrotoxicity reducing effects of D-sorbitol: serum BUN and Cre after tail vein administration of PMO dosing solutions; settings: D-sorbitol in PMO dosing solution vs dosing solution comprising no D-sorbitol
# Procedure: Next, the antisense oligomer of PMO No. 2 was dissolved in a solution obtained by dissolving D-sorbitol (manufactured by Maruishi Pharmaceutical Co., Ltd.) with physiological saline to prepare a dosing solution comprising the antisense oligomer and D-sorbitol at the concentrations shown in Table 9. Also, the antisense oligomer of PMO No. 3 was dissolved in a solution obtained by dissolving D-sorbitol with water for injection to prepare a dosing solution comprising the antisense oligomer and D-sorbitol at the concentrations shown in Table 10.
# The obtained dosing solutions were administered into the tail vein of 6-week-old C57BL/6J male mice (N=3) at 4 and 10 mL/kg. Next day, serum was collected from the mice, and the blood urea nitrogen (BUN) values and blood creatinine (Cre) values were measured with the urease-GIDH method and the enzymatic method, respectively, using automatic biochemical analyzers JCA-BM8060 (manufactured by JEOL Ltd.). It was determined that the nephrotoxicity was reduced in a case where both of the BUN values and Cre values decreased in the mice to which the dosing solution comprising D-sorbitol has been administered, compared to the mice to which the dosing solution comprising no D-sorbitol has been administered.
smiles,measurement,setting,value
OC[C@@H](O)[C@@H](O)[C@H](O)[C@H](O)CO [D-mannitol],Precipitation suppressing effect,[1],suppress the precipitation of antisense oligomers
same,Nephrotoxicity reducing effect,C57BL/6J male mice [2],reduce nephrotoxicity
OC[C@@H](O)[C@@H](O)[C@H](O)[C@@H](O)CO [D-sorbitol],Nephrotoxicity reducing effect,C57BL/6J male mice [3],reduce nephrotoxicity
